Experimental data from patent US20070049593A1 (priority 2004, published 2007).
Counter-ions that a name gives are not always drawn.

Target: T1, HCV polymerase (Hepatitis C virus genotype 1b, UniProt P26663)
T1 construct: a region encoding NS5B (J Virol 1991 March, 65(3), 1105-13, 544 amino acids after deletion of 47 amino acids on the C-terminal); 6xHis (C); made in house; host or cells: Escherichia coli
Assay: biochemical
Set-up: species or system HCV BK strain
In short: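 His-tagged NS5B (BK strain, 47-aa C-terminal deletion, E. coli-expressed) at 0.5 μg/ml copied 5 μg/ml run-off RNA bearing the HCV 3′ UTR with 2 μM UTP plus [3H]UTP, 50 μM ATP/GTP, in pH 7.5 Tris with 5 mM MgCl2, 25 °C, 90 min. TCA-precipitated RNA was counted and IC50 calculated.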

T1 sequence (P26663 2420-2963): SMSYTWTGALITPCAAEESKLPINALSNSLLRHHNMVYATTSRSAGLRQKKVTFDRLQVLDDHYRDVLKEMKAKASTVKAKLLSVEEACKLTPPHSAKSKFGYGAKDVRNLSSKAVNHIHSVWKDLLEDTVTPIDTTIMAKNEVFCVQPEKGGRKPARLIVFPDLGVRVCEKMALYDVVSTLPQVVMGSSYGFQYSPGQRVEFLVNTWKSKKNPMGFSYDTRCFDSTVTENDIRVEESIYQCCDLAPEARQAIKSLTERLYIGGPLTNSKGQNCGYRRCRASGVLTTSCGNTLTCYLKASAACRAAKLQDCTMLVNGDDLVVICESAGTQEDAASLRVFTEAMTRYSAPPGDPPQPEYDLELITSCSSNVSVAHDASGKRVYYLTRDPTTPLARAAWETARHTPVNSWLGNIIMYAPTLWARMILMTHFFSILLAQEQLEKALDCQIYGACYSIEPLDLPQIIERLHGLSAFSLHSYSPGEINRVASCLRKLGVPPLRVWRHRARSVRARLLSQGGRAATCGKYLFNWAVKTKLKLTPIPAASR

`O=C(O)c1ccc2c(C3CCCCC3)c3n(c2c1)CCOc1c(OCCCN2CCCCC2)cccc1-3` [Example 2-460, 12-cyclohexyl-4-[3-(piperidin-1-yl)propoxy]-6,7-dihydro-5-oxa-7a-azadibenzo[a,e]azulene-9-carboxylic acid monohydrochloride] and `O=C(O)c1ccc2c(C3CCCCC3)c3n(c2c1)CCOc1c(CCN2CCCCC2)cccc1-3` [Example 2-464, 12-cyclohexyl-4-[2-(piperidin-1-yl)ethyl]-6,7-dihydro-5-oxa-7a-azadibenzo[a,e]azulene-9-carboxylic acid monohydrochloride] cannot be ordered by IC50: < 100 nM for the first, < 100 nM for the second.

`O=C(O)c1ccc2c(C3CCCCC3)c3n(c2c1)CCOc1c(OCCN2CCOCC2)cccc1-3` [Example 2-462, 12-cyclohexyl-4-[2-(morpholin-4-yl)ethoxy]-6,7-dihydro-5-oxa-7a-azadibenzo[a,e]azulene-9-carboxylic acid monohydrochloride] and `CN1CCC(OCCOc2cccc3c2OCCn2c-3c(C3CCCCC3)c3ccc(C(=O)O)cc32)CC1` [Example 2-467, 12-cyclohexyl-4-[2-(1-methylpiperidin-4-yloxy)ethoxy]-6,7-dihydro-5-oxa-7a-azadibenzo[a,e]azulene-9-carboxylic acid monohydrochloride] cannot be ordered by IC50: < 100 nM for the first, < 100 nM for the second.

`CN(C)CCOc1cccc2c1OCCn1c-2c(C2CCCCC2)c2ccc(C(=O)O)cc21` [Example 2-463, 12-cyclohexyl-4-(2-dimethylaminoethoxy)-6,7-dihydro-5-oxa-7a-azadibenzo[a,e]azulene-9-carboxylic acid monohydrochloride] and `COc1cccc2c1OCCn1c-2c(C2CCCCC2)c2ccc(C(=O)O)cc21` [Example 2-475, 12-cyclohexyl-4-methoxy-6,7-dihydro-5-oxa-7a-azadibenzo[a,e]azulene-9-carboxylic acid] cannot be ordered by IC50: < 100 nM for the first, < 100 nM for the second.

`CC(C)(C)OC(=O)N1CCC(OCCOc2cccc3c2OCCn2c-3c(C3CCCCC3)c3ccc(C(=O)O)cc32)CC1` [Example 2-465, 4-[2-(1-tert-butoxycarbonylpiperidin-4-yloxy)ethoxy]-12-cyclohexyl-6,7-dihydro-5-oxa-7a-azadibenzo[a,e]azulene-9-carboxylic acid] and `O=C(O)c1ccc2c(C3CCCCC3)c3n(c2c1)CCOc1c(OCCOC2CCNCC2)cccc1-3` [Example 2-466, 12-cyclohexyl-4-[2-(piperidin-4-yloxy)ethoxy]-6,7-dihydro-5-oxa-7a-azadibenzo[a,e]azulene-9-carboxylic acid monohydrochloride] cannot be ordered by IC50: < 100 nM for the first, < 100 nM for the second.

`O=C(O)c1ccc2c(C3CCCCC3)c3n(c2c1)CCOc1c(OCCC2CCN(C4CCCC4)CC2)cccc1-3` [Example 2-468, 12-cyclohexyl-4-[2-(1-cyclopentylpiperidin-4-yl)ethoxy]-6,7-dihydro-5-oxa-7a-azadibenzo[a,e]azulene-9-carboxylic acid monohydrochloride] and `CN1CCC(N(C)CCOc2cccc3c2OCCn2c-3c(C3CCCCC3)c3ccc(C(=O)O)cc32)CC1` [Example 2-472, 12-cyclohexyl-4-{2-[N-methyl-N-(1-methylpiperidin-4-yl)amino]ethoxy}-6,7-dihydro-5-oxa-7a-azadibenzo[a,e]azulene-9-carboxylic acid trihydrochloride] cannot be ordered by IC50: < 100 nM for the first, < 100 nM for the second.

`CN1CCCC(Oc2cccc3c2OCCn2c-3c(C3CCCCC3)c3ccc(C(=O)O)cc32)C1` (centres unmarked) [Example 2-469, 12-cyclohexyl-4-(1-methylpiperidin-3-yloxy)-6,7-dihydro-5-oxa-7a-azadibenzo[a,e]azulene-9-carboxylic acid monohydrochloride] and `COCCN1CCCC(Oc2cccc3c2OCCn2c-3c(C3CCCCC3)c3ccc(C(=O)O)cc32)C1` (centres unmarked) [Example 2-470, 12-cyclohexyl-4-[1-(2-methoxyethyl)piperidin-3-yloxy]-6,7-dihydro-5-oxa-7a-azadibenzo[a,e]azulene-9-carboxylic acid monohydrochloride] cannot be ordered by IC50: < 100 nM for the first, < 100 nM for the second.

`O=C(O)c1ccc2c(C3CCCCC3)c3n(c2c1)CCOc1c(OCc2cc(N4CCCC4=O)ccc2N2CCOCC2)cccc1-3` [Example 2-471, 12-cyclohexyl-4-[2-(morpholin-4-yl)-5-(2-oxopyrrolidin-1-yl)benzyloxy]-6,7-dihydro-5-oxa-7a-azadibenzo[a,e]azulene-9-carboxylic acid monohydrochloride] and `O=C(O)c1ccc2c(C3CCCCC3)c3n(c2c1)CCOc1c(NCCN2CCCCC2)cccc1-3` [Example 2-478, 12-cyclohexyl-4-[2-(piperidin-1-yl)ethylamino]-6,7-dihydro-5-oxa-7a-azadibenzo[a,e]azulene-9-carboxylic acid dihydrochloride] cannot be ordered by IC50: < 100 nM for the first, < 100 nM for the second.

First: COC(=O)c1ccc2c(C3CCCCC3)c3n(c2c1)CCOc1c(OCC(=O)O)cccc1-3 [Example 2-473, methyl 4-carboxymethoxy-12-cyclohexyl-6,7-dihydro-5-oxa-7a-azadibenzo[a,e]azulene-9-carboxylate]
Second: Nc1cccc2c1OCCn1c-2c(C2CCCCC2)c2ccc(C(=O)O)cc21 [Example 2-476, 4-amino-12-cyclohexyl-6,7-dihydro-5-oxa-7a-azadibenzo[a,e]azulene-9-carboxylic acid]
The IC50 of the first is higher: 100 to 1000 nM for the first, < 100 nM for the second. The second is the more potent here.

`CN(CCN1CCCCC1)c1cccc2c1OCCn1c-2c(C2CCCCC2)c2ccc(C(=O)O)cc21` [Example 2-474, 12-cyclohexyl-4-(N-methyl-N-[2-(piperidin-1-yl)ethyl]amino}-6,7-dihydro-5-oxa-7a-azadibenzo[a,e]azulene-9-carboxylic acid dihydrochloride] and `CCN(CCN1CCCCC1)c1cccc2c1OCCn1c-2c(C2CCCCC2)c2ccc(C(=O)O)cc21` [Example 2-480, 12-cyclohexyl-4-{N-ethyl-N-[2-(piperidin-1-yl)ethyl]amino}-6,7-dihydro-5-oxa-7a-azadibenzo[a,e]azulene-9-carboxylic acid dihydrochloride] cannot be ordered by IC50: < 100 nM for the first, < 100 nM for the second.

`O=C(O)c1ccc2c(C3CCCCC3)c3n(c2c1)CCOc1c-3cccc1[N+](=O)[O-]` [Example 2-477, 12-cyclohexyl-4-nitro-6,7-dihydro-5-oxa-7a-azadibenzo[a,e]azulene-9-carboxylic acid] and `CN(C)c1cccc2c1OCCn1c-2c(C2CCCCC2)c2ccc(C(=O)O)cc21` [Example 2-483, 12-cyclohexyl-4-dimethylamino-6,7-dihydro-5-oxa-7a-azadibenzo[a,e]azulene-9-carboxylic acid] cannot be ordered by IC50: < 100 nM for the first, < 100 nM for the second.

`Cc1ccc2c(c1)OCCn1c-2c(C2CCCCC2)c2ccc(C(=O)O)cc21` [Example 2-479, 12-cyclohexyl-3-methyl-6,7-dihydro-5-oxa-7a-azadibenzo[a,e]azulene-9-carboxylic acid] and `CCCN(CCN1CCCCC1)c1cccc2c1OCCn1c-2c(C2CCCCC2)c2ccc(C(=O)O)cc21` [Example 2-481, 12-cyclohexyl-4-{N-[2-(piperidin-1-yl)ethyl]-N-propylamino}-6,7-dihydro-5-oxa-7a-azadibenzo[a,e]azulene-9-carboxylic acid dihydrochloride] cannot be ordered by IC50: < 100 nM for the first, < 100 nM for the second.

In the case of `COCCN(CCN1CCCCC1)c1cccc2c1OCCn1c-2c(C2CCCCC2)c2ccc(C(=O)O)cc21` [Example 2-482, 12-cyclohexyl-4-{N-(2-methoxyethyl)-N-[2-(piperidin-1-yl)ethyl]amino}-6,7-dihydro-5-oxa-7a-azadibenzo[a,e]azulene-9-carboxylic acid dihydrochloride], the IC50 is reported as < 100 nM.
